Data as given in patent US9533994B2, “Monoclinic crystalline form of asenapine maleate with a specific particle size distribution” (Laboratorios Lesvi S.L., priority 2011, dated 2017).
Structures can show the parent of a compound that is named as a salt.

Assay: Particle Size Distribution (PSD) by Laser Diffraction Spectrometry (Malvern Mastersizer 2000)
Type: physicochemical
Settings: sample in heptane with 0.2% Span-20, by volume
Protocol: Laser Diffraction Spectrometry (LDS) was used to determine the Particle Size Distribution (PSD). The samples were prepared by mixing 100 mg of asenapine maleate with 5 mL of heptane that contains 0.2% of Span-20. Ultrasonic treatment of the samples was performed for 5 minutes and the PSD was analysed using a particle size analyzer Malvern Mastersizer 2000. Refractive index of asenapine 1.800 and absorption 0.01.

SMILES	PSD d90 [μm]	PSD d95 [μm]
CN1C[C@@H]2c3ccccc3Oc3ccc(Cl)cc3[C@H]2C1 (racemic) [Example 7, asenapine maleate]	36	48
CN1C[C@@H]2c3ccccc3Oc3ccc(Cl)cc3[C@H]2C1 (racemic) [Example 2, asenapine maleate]	15	20
CN1C[C@@H]2c3ccccc3Oc3ccc(Cl)cc3[C@H]2C1 (racemic) [Example 13, asenapine maleate]	31	38
CN1C[C@@H]2c3ccccc3Oc3ccc(Cl)cc3[C@H]2C1 (racemic) [Example 8, asenapine maleate]	54	68
CN1C[C@@H]2c3ccccc3Oc3ccc(Cl)cc3[C@H]2C1 (racemic) [Example 10, asenapine maleate]	37	49

Second part, the compound after the results:

PSD d90 [μm]	PSD d95 [μm]	SMILES
16	24	CN1C[C@@H]2c3ccccc3Oc3ccc(Cl)cc3[C@H]2C1 (racemic) [Example 1, asenapine maleate]
21	28	CN1C[C@@H]2c3ccccc3Oc3ccc(Cl)cc3[C@H]2C1 (racemic) [Example 4, asenapine maleate]
23	28	CN1C[C@@H]2c3ccccc3Oc3ccc(Cl)cc3[C@H]2C1 (racemic) [Example 9, asenapine maleate]
29	35	CN1C[C@@H]2c3ccccc3Oc3ccc(Cl)cc3[C@H]2C1 (racemic) [Example 5, asenapine maleate]
46	56	CN1C[C@@H]2c3ccccc3Oc3ccc(Cl)cc3[C@H]2C1 (racemic) [Example 6, asenapine maleate]
53	120	CN1C[C@@H]2c3ccccc3Oc3ccc(Cl)cc3[C@H]2C1 (racemic) [Example 12, asenapine maleate]
31	37	CN1C[C@@H]2c3ccccc3Oc3ccc(Cl)cc3[C@H]2C1 (racemic) [Example 3, asenapine maleate]
17	21	CN1C[C@@H]2c3ccccc3Oc3ccc(Cl)cc3[C@H]2C1 (racemic) [Example 11, asenapine maleate]

Assay: Outcome of micronisation of asenapine maleate crystals
Type: physicochemical
Settings: micronised crystals, prepared as disclosed in U.S. Pat. No. 4,145,434
Protocol: As described in Funke et al., Arzneim.-Forsch./Drug Res., 40:536-539 (1990), asenapine maleate (Form H) was the first known polymorphic form. Form H is a monoclinic crystalline form having a melting point in the range of 141° C. to 145° C. EP 1 710 245 B1 and EP 1 917 267 B1 described the discovery of a new form of asenapine maleate (Form L), which is an orthorhombic crystalline form having a melting point in the range of 138° C. to 142° C. EP 1 710 245 131 and EP 1 917 267 B1 mention the importance of asenapine particle size since asenapine commercial sublingual tablets are dissolved in the mouth. Thus, particles having a size distribution characterized by a d95 (95% volume of the particles are smaller than or equal to the indicated size) of about 100 μm or less, more preferably about 50 μm or less, and even more preferably about 30 μm or less, is desirable for sublingual formulations. According to EP 1 710 245 B1 and EP 1 917 267 B1, the outcome of the micronisation process used therein, and which is necessary to reduce the particle size of crystals, appeared to be unpredictable when crystals of monoclinic form of asenapine maleate were subjected to the micronisation process. […]

SMILES	polymorphic stability after micronisation
CN1C[C@@H]2c3ccccc3Oc3ccc(Cl)cc3[C@H]2C1 (racemic) [monoclinic form of asenapine maleate, asenapine maleate]	not stable and eventually evolved to the orthorhombic crystalline form

Assay: not given
Settings: micronised, per EP 1 710 245 B1 and EP 1 917 267 B1; cited from earlier work

SMILES	d95 after micronisation [μm]
CN1C[C@@H]2c3ccccc3Oc3ccc(Cl)cc3[C@H]2C1 (racemic) [asenapine maleate]	≤ 30
